Legend:
in vitro = type: cell-based, Human; details: human; HEp-2 cells, 5 or 6 days; read-out: Cytotoxicity CC50
HEp-2 cells = experiment: in vitro; type: cell-based, Human
RSV A2 = experiment: CPE assay, RSV A2 in HEp-2 cells (resazurin); type: cell-based; details: human respiratory syncytial virus, 120 h, RSV A2 0.2 MOI, 5 days

Cc1cnc(N2CC3(CCOCC3)C2)c(C(=O)Nc2ccc(C(=O)N3CCc4cc(C(=O)Nc5c(C)cccc5F)sc4-c4ccccc43)cc2)c1 [PC786]
CC50 (in vitro): > 14 µM | concentration up to which cell viability was not affected (HEp-2 cells): ≥ 14 µM | IC50 (RSV A2): 0.5 nM

— paper PMC11680393 (Viruses, 2024)
